Source: patent US12096772B2, “Herbicidal compositions” (SYNGENTA CROP PROTECTION AG, priority 2022, dated 2024)

Tested on: Amaranthus palmeri (AMAPA)
Test: Post-emergence greenhouse percent control of Amaranthus palmeri
Format: in vivo
Details: herbicide alone; for Observed control 7DAA: 7 days after application; for Observed control 14DAA: 14 days after application; for Observed control 21DAA: 21 days after application
Experimental: Seeds of Amaranthus palmeri (AMAPA) were sown in vero beach potting soil and grown in a greenhouse. The herbicides, alone and in combination, were applied post-emergence when the weeds were 3 to 4-inches along with adjuvants 2.5% v/v AMSOL® and 1% v/v AgriDex® using a spray TT110015 nozzle providing 15 gallons/acre. Percent control evaluations were performed at 7, 14, and 21 days after application.
Expected action was calculated by the Colby formula.

For bicyclopyrone, the “Observed control 7DAA” value (10 g ai/ha) was 72%, the “Observed control 14DAA” value (10 g ai/ha) was 60% and the “Observed control 21DAA” value (10 g ai/ha) was 57%.

For `O=c1cc(Cl)[nH]nc1-c1ccccc1` [Pyridafol, pyridafol], the “Observed control 7DAA” value (2.5 g ai/ha) was 0%, the “Observed control 14DAA” value (2.5 g ai/ha) was 0% and the “Observed control 21DAA” value (2.5 g ai/ha) was 0%. The “Observed control 7DAA” value (5 g ai/ha) was 0%, the “Observed control 14DAA” value (5 g ai/ha) was 0% and the “Observed control 21DAA” value (5 g ai/ha) was 0%. For the same molecule, the “Observed control 7DAA” value (10 g ai/ha) was 0%, the “Observed control 14DAA” value (10 g ai/ha) was 0% and the “Observed control 21DAA” value (10 g ai/ha) was 0%. The “Observed control 7DAA” value (27 g ai/ha) was 5%, the “Observed control 14DAA” value (27 g ai/ha) was 2% and the “Observed control 21DAA” value (27 g ai/ha) was 0%. For the same molecule, the “Observed control 7DAA” value (57 g ai/ha) was 17%, the “Observed control 14DAA” value (57 g ai/ha) was 10% and the “Observed control 21DAA” value (57 g ai/ha) was 3%. For the same molecule, the “Observed control 7DAA” value (87 g ai/ha) was 23%, the “Observed control 14DAA” value (87 g ai/ha) was 15% and the “Observed control 21DAA” value (87 g ai/ha) was 13%. The “Observed control 7DAA” value (117 g ai/ha) was 23%, the “Observed control 14DAA” value (117 g ai/ha) was 17% and the “Observed control 21DAA” value (117 g ai/ha) was 7%.

In the case of `CS(=O)(=O)c1ccc(C(=O)C2C(=O)CCCC2=O)c([N+](=O)[O-])c1` [Mesotrione, mesotrione], the “Observed control 7DAA” value (10 g ai/ha) was 75%, the “Observed control 14DAA” value (10 g ai/ha) was 63% and the “Observed control 21DAA” value (10 g ai/ha) was 62%.
